Measured values from patent publication US6288091A, “Antiherpes virus compounds and methods for their preparation and use” (Boehringer Ingelheim Ltd., priority 1999, dated 2001).

How the values were obtained:
HSV-1 helicase-primase = target: T1, HSV-1 helicase-primase (Human herpesvirus 1, UniProt P10189+P10236); assay: HSV-1 DNA-dependent ATPase assay (inhibition of HSV-1 helicase-primase); format: biochemical
T1 construct: made in house; host or cells: Sf21 insect cells triply infected with recombinant baculoviruses (UL5, UL8, UL52)
In short: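 Holoenzyme (UL5/UL8/UL52) expressed in baculovirus-infected Sf21 cells and purified, used at 3 μg/mL with 4 mM ATP and 25 μM primed M13 ssDNA in HEPES pH 7.5, 5.5 mM MgCl2, 3.3% DMSO. Incubated 20 min at 34°. Released phosphate read by malachite green at 650 nm, and activity taken from net absorbance with versus without inhibitor.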

HSV-1 strain F or KOS = assay: Inhibition of herpes simplex virus (HSV-1) replication in cell culture (BHK-21 cells, glycoprotein C ELISA); format: cell-based
In short: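 BHK-21 clone 13 cells infected with HSV-1 F or KOS at MOI 0.05 PFU/cell for 1 h at 37°, washed, then treated with compound in α-MEM/2% FBS for 24 h. Late glycoprotein C quantified by ELISA (mAb C11, HRP/OPD, 450 nm); EC50 from % inhibition.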

[1] = Human alphaherpesvirus 1, BHK-21, Group 1 Table 1 entries
[2] = Group 1 Table 2 entries (Q = CH2)
[3] = Human alphaherpesvirus 1, BHK-21, Group 1 Table 2 entries
[4] = Human alphaherpesvirus 1, BHK-21, Group 1 Table 5 entries
[5] = Human alphaherpesvirus 1, BHK-21, Group 1 Table 3 entries

T1 sequence (P10192 whole entry): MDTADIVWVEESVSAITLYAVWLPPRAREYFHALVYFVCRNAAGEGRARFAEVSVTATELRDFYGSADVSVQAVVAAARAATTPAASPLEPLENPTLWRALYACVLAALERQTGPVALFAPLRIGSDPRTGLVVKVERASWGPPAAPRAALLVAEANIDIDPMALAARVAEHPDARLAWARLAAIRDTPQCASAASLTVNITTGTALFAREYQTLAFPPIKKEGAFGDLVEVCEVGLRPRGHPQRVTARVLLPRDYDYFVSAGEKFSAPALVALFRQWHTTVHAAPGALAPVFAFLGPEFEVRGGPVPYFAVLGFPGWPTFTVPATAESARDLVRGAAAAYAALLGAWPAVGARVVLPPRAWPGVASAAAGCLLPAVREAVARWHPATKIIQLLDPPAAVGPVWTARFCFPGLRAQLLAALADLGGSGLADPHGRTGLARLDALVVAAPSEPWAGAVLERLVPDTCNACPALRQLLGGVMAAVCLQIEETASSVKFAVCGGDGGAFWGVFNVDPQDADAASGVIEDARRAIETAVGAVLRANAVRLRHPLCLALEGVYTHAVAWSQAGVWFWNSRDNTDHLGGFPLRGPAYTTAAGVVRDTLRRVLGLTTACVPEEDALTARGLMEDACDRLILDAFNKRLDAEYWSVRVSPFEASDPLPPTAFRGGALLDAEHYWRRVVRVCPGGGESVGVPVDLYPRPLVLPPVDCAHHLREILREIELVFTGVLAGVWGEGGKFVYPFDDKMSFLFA
T1 sequence (P10236 whole entry): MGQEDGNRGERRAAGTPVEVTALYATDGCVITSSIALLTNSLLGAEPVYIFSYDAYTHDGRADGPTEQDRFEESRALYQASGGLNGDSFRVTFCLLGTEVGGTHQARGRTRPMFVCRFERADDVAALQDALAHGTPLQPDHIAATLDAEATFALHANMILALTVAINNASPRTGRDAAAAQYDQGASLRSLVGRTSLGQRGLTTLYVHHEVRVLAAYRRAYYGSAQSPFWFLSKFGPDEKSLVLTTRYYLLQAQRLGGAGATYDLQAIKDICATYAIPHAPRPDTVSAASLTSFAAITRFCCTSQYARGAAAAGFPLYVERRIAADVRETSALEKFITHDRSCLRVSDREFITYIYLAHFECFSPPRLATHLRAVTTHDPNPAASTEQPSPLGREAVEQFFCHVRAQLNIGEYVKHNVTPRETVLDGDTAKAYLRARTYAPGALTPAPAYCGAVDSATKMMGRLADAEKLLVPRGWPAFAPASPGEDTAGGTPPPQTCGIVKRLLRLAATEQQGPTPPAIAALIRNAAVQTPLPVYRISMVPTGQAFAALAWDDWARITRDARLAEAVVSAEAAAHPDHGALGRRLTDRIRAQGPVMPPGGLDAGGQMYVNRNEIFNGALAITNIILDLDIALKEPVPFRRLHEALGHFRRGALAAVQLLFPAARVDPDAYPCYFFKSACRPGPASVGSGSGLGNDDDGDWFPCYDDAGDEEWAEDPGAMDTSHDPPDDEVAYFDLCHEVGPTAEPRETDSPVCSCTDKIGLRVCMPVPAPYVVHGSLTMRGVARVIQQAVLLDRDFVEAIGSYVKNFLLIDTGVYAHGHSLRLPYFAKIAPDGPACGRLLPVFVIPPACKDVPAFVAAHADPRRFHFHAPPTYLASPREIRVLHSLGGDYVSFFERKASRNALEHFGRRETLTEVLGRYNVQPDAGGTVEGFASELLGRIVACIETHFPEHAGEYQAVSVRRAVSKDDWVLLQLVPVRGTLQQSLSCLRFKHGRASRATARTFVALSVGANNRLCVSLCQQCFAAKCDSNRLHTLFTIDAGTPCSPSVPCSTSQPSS
T1 sequence (P10189 whole entry): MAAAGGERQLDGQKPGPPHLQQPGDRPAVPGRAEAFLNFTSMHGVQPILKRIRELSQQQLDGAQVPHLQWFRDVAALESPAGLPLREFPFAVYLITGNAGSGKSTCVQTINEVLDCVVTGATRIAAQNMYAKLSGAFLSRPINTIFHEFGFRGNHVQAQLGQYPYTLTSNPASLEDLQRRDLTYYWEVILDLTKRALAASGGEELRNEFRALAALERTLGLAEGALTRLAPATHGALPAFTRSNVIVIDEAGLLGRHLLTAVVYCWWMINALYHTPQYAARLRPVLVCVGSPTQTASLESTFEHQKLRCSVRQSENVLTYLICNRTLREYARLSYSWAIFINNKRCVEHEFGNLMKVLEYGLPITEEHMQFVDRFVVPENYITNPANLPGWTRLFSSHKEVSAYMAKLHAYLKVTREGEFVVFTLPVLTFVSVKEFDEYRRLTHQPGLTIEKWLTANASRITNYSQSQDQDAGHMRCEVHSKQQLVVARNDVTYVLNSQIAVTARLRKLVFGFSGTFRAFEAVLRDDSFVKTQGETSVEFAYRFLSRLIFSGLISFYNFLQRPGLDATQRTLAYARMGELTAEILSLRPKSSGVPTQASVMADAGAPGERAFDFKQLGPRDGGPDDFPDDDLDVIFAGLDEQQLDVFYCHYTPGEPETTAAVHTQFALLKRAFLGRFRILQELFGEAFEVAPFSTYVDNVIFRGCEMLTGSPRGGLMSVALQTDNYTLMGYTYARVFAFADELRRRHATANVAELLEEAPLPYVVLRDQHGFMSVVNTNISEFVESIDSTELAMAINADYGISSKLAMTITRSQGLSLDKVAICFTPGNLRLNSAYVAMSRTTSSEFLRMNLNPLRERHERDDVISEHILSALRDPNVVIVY

| SMILES | IC50 (HSV-1 helicase-primase; Group 1 Table 1 entries) [nM] | EC50 (HSV-1 strain F or KOS; [1]) [nM] | further results |
| --- | --- | --- | --- |
| Nc1nc(-c2ccc(NC(=O)CN(CCc3ccccn3)C(=O)C3CCCC3)cc2)cs1 [Example 79] | 840 | 160 |  |
| C[C@@H](c1ccccc1)N(CCC(=O)Nc1ccc(-c2csc(N)n2)cc1)C(=O)OC(C)(C)C [Example 18] |  |  | IC50 (HSV-1 helicase-primase; [2]): 1000 nM; EC50 (HSV-1 strain F or KOS; [3]): 1600 nM |
| Nc1nc(-c2ccc(NC(=O)CCN(C(=O)c3cccnc3)C3Cc4ccccc4C3)cc2)cs1 [Example 12] |  |  | IC50 (HSV-1 helicase-primase; [2]): 10000 nM; EC50 (HSV-1 strain F or KOS; [3]): 7600 nM |
| Nc1nc(-c2ccc(NC(=O)CN(Cc3ccccc3)C(=O)Cc3ccccc3)cc2)cs1 [Example 26] | 500 | 50 |  |
| Nc1nc(-c2ccc(NC(=O)CCNCc3ccccc3)cc2)cs1 [Example 1] |  |  | IC50 (HSV-1 helicase-primase; [2]): 21000 nM; EC50 (HSV-1 strain F or KOS; [3]): 6000 nM |
| CC(C)(C)OC(=O)N(CCC(=O)Nc1ccc(-c2csc(N)n2)cc1)CC1CCCCC1 [Example 21] |  |  | IC50 (HSV-1 helicase-primase; [2]): 28 nM; EC50 (HSV-1 strain F or KOS; [3]): 450 nM |
| C[C@@H](c1ccccc1)N(CC(=O)Nc1ccc(-c2csc(N)n2)cc1)C(=O)c1ccncc1 [Example 58] | 190 | 40 |  |
| Nc1nc(-c2ccc(NC(=O)CN(CCc3ccccn3)C(=O)C3CCCCC3)cc2)cs1 [Example 50] | 600 | 68 |  |
| C[C@H](NCCC(=O)Nc1ccc(-c2csc(N)n2)cc1)c1ccccc1 [Example 20] |  |  | IC50 (HSV-1 helicase-primase; [2]): 7200 nM; EC50 (HSV-1 strain F or KOS; [3]): 1300 nM |
| Nc1nc(-c2ccc(NC(=O)CN(Cc3ccccc3)C(=O)c3cccs3)cc2)cs1 [Example 32] | 420 | 40 |  |
| CC(C)(C)OC(=O)N[C@H](Cc1ccccc1)C(=O)Nc1ccc(-c2csc(N)n2)cc1 [Example 4] |  |  | IC50 (HSV-1 helicase-primase; Group 1 Table 5 entries): 1500 nM; EC50 (HSV-1 strain F or KOS; [4]): 570 nM |
| Nc1nc(-c2ccc(NC(=O)[C@@H](Cc3ccccc3)N(Cc3ccccc3)C(=O)C3CCCCC3)cc2)cs1 [Example 9] |  |  | IC50 (HSV-1 helicase-primase; Group 1 Table 5 entries): 52 nM; EC50 (HSV-1 strain F or KOS; [4]): 290 nM |
| O=C(CN(Cc1ccccc1)C(=O)C1CCCCC1)Nc1ccc(-c2cscn2)cc1 [Example 5] |  |  | IC50 (HSV-1 helicase-primase; Group 1 Table 3 entries): 100 nM; EC50 (HSV-1 strain F or KOS; [5]): 12 nM |
| Nc1nc(-c2ccc(NC(=O)CN(Cc3ccccc3)C(=O)c3cccnc3)cc2)cs1 [Example 28] | 430 | 130 |  |
| Nc1nc(-c2ccc(NC(=O)CCN(Cc3ccccc3)Cc3ccccc3)cc2)cs1 [Example 2] |  |  | IC50 (HSV-1 helicase-primase; [2]): 1200 nM; EC50 (HSV-1 strain F or KOS; [3]): 2200 nM |
| CC(C)(C)CN(CC(=O)Nc1ccc(-c2csc(N)n2)cc1)C(=O)C1CCCCC1 [Example 80] | 960 | 310 |  |
| Nc1nc(-c2ccc(NC(=O)CN(CCc3ccccc3)C(=O)C3CCCC3)cc2)cs1 [Example 66] | 400 | 90 |  |
| Nc1nc(-c2ccc(NC(=O)CN(Cc3ccc(F)cc3)C(=O)c3ccncc3)cc2)cs1 [Example 84] | 360 | 140 |  |
| CC(C)(C)OC(=O)N[C@@H](Cc1ccccc1)C(=O)Nc1ccc(-c2csc(N)n2)cc1 [Example 3] |  |  | IC50 (HSV-1 helicase-primase; Group 1 Table 5 entries): 46 nM; EC50 (HSV-1 strain F or KOS; [4]): 16 nM |
| CN(C)CCN(CC(=O)Nc1ccc(-c2csc(N)n2)cc1)C(=O)C1CCCCC1 [Example 140] | 48000 | 9200 |  |
| CC(C)(C)OC(=O)N(CCC(=O)Nc1ccc(-c2csc(N)n2)cc1)C1Cc2ccccc2C1 [Example 14] |  |  | IC50 (HSV-1 helicase-primase; [2]): 1700 nM; EC50 (HSV-1 strain F or KOS; [3]): 1800 nM |

| SMILES | IC50 (HSV-1 helicase-primase; Group 1 Table 1 entries) [nM] | EC50 (HSV-1 strain F or KOS; [1]) [nM] | further results |
| --- | --- | --- | --- |
| Nc1nc(-c2ccc(NC(=O)[C@H](Cc3ccccc3)NCc3ccccc3)cc2)cs1 [Example 6] |  |  | IC50 (HSV-1 helicase-primase; Group 1 Table 5 entries): 1060 nM; EC50 (HSV-1 strain F or KOS; [4]): 830 nM |
| CC(C)c1nc(-c2ccc(NC(=O)CN(Cc3ccccc3)C(=O)c3ccccc3)cc2)cs1 [Example 20] |  |  | IC50 (HSV-1 helicase-primase; Group 1 Table 3 entries): > 50000 nM; EC50 (HSV-1 strain F or KOS; [5]): > 25000 nM |
| Nc1nc(-c2ccc(NC(=O)CN(Cc3ccccc3)C(=O)C3CCCCC3)cc2)cs1 [Example 34] | 26 | 4 |  |
| Nc1nc(-c2ccc(NC(=O)CN(CC3CCCCC3)C(=O)Cc3ccccc3)cc2)cs1 [Example 77] | 370 | 190 |  |
| Nc1nc(-c2ccc(NC(=O)CNCc3ccccc3)cc2)cs1 [Example 1] | 6400 | 2700 |  |
| Nc1nc(-c2ccc(NC(=O)CN(CC3CCCCC3)C(=O)C3CCNCC3)cc2)cs1 [Example 62] |  | 5500 | inhibition at 50 µM (HSV-1 helicase-primase; Group 1 Table 1 entries, at 50 μM, read-out: inhibition at 50 μM (printed in the HSV-1 IC50 column)): 29% |
| CC(C)(C)CC(=O)N(CC(=O)Nc1ccc(-c2csc(N)n2)cc1)Cc1ccccc1 [Example 42] | 26 | 2 |  |
| C[C@@H](c1ccccc1)N(CCC(=O)Nc1ccc(-c2csc(N)n2)cc1)Cc1ccccc1 [Example 19] |  |  | IC50 (HSV-1 helicase-primase; [2]): 460 nM; EC50 (HSV-1 strain F or KOS; [3]): 890 nM |
| Nc1nc(-c2ccc(NC(=O)CN(Cc3ccccc3)C(=O)c3ccncc3)cc2)cs1 [Example 29] | 240 | 35 |  |
| Nc1nc(-c2ccc(NC(=O)CN(Cc3cccnc3)C(=O)C3CCCCC3)cc2)cs1 [Example 48] | 140 | 40 |  |
| CC(C)(C)OC(=O)N(CC(=O)Nc1ccc(-c2csc(N)n2)cc1)Cc1ccncc1 [Example 90] | 58 | 15 |  |
| Nc1nc(-c2ccc(NC(=O)CN(Cc3ccccc3)C(=O)CC3CCCC3)cc2)cs1 [Example 39] | 59 | 9 |  |
| Nc1nc(-c2ccc(NC(=O)CN(CC3CCCCC3)C(=O)c3ccccc3)cc2)cs1 [Example 60] | 1500 | 540 |  |
| Nc1nc(-c2ccc(NC(=O)CN(Cc3ccncc3)C(=O)C3CCCCC3)cc2)cs1 [Example 49, N-{2-{{4-(2-amino-4-thiazolyl)phenyl}amino}-2-oxoethyl}-N-(4-pyridinylmethyl)cyclohexanecarboxamide] | 37 | 12 |  |
| CC(=O)Nc1nc(-c2ccc(NC(=O)CN(Cc3ccccc3)C(C)=O)cc2)cs1 [Example 18] |  |  | IC50 (HSV-1 helicase-primase; Group 1 Table 3 entries): > 100000 nM; EC50 (HSV-1 strain F or KOS; [5]): > 30000 nM |
| CC(C)(C)NC(=S)N(CC(=O)Nc1ccc(-c2csc(N)n2)cc1)Cc1ccccc1 [Example 93] | 160 | 120 |  |
| CC(C)(C)OC(=O)NCC(=O)N(CC(=O)Nc1ccc(-c2csc(N)n2)cc1)Cc1ccccc1 [Example 72] | 650 | 670 |  |
| CC(C)C(=O)N(CC(=O)Nc1ccc(-c2csc(N)n2)cc1)Cc1ccccc1 [Example 43] | 1600 | 130 |  |
| Nc1nc(-c2ccc(NC(=O)CCN(Cc3ccccc3)CC3CCCCC3)cc2)cs1 [Example 17] |  |  | IC50 (HSV-1 helicase-primase; [2]): 760 nM; EC50 (HSV-1 strain F or KOS; [3]): 1800 nM |
| Nc1nc(-c2ccc(NC(=O)CN(Cc3ccccc3)C(=O)Cc3ccccn3)cc2)cs1 [Example 31] | 1600 | 400 |  |
| CC(C)(C)OC(=O)N(CCC(=O)Nc1ccc(-c2csc(N)n2)cc1)Cc1ccccc1 [Example 15] |  |  | IC50 (HSV-1 helicase-primase; [2]): 280 nM; EC50 (HSV-1 strain F or KOS; [3]): 640 nM |

| SMILES | IC50 (HSV-1 helicase-primase; Group 1 Table 1 entries) [nM] | EC50 (HSV-1 strain F or KOS; [1]) [nM] | further results |
| --- | --- | --- | --- |
| C[C@@H](NCCC(=O)Nc1ccc(-c2csc(N)n2)cc1)c1ccccc1 [Example 25] |  |  | IC50 (HSV-1 helicase-primase; [2]): 13600 nM; EC50 (HSV-1 strain F or KOS; [3]): 2600 nM |
| Nc1nc(-c2ccc(NC(=O)CN(Cc3ccccc3)C(=O)c3cc[n+]([O-])cc3)cc2)cs1 [Example 30] | 440 | 430 |  |
| CC(=O)N(CC(=O)Nc1ccc(-c2csc(N)n2)cc1)Cc1ccccc1 [Example 44] | 3300 | 750 |  |
| C[C@H](c1ccccc1)N(CC(=O)Nc1ccc(-c2csc(N)n2)cc1)C(=O)C1CCCCC1 [Example 52] | 87 | 13 |  |
| Nc1nc(-c2ccc(NC(=O)CN(Cc3ccccc3)Cc3ccccc3)cc2)cs1 [Example 16] | 550 | 450 |  |
| CN(C)c1nc(-c2ccc(NC(=O)CN(Cc3ccccc3)C(=O)c3ccccc3)cc2)cs1 [Example 11] |  |  | IC50 (HSV-1 helicase-primase; Group 1 Table 3 entries): > 50000 nM; EC50 (HSV-1 strain F or KOS; [5]): 24 nM |
| Nc1nc(-c2ccc(NC(=O)CN(Cc3ccccc3)C(=O)c3cnccn3)cc2)cs1 [Example 33] | 1100 | 170 |  |
| Nc1nc(-c2ccc(NC(=O)CN(Cc3ccccc3)C(=O)CC3CCCCC3)cc2)cs1 [Example 38] | 88 | 16 |  |
| Nc1nc(-c2ccc(NC(=O)CN(Cc3ccccc3)C(=O)c3ccc(F)cc3)cc2)cs1 [Example 24] | 48 | 2 |  |
| CN[C@@H](Cc1ccccc1)C(=O)Nc1ccc(-c2csc(N)n2)cc1 [Example 8] |  |  | IC50 (HSV-1 helicase-primase; Group 1 Table 5 entries): 45000 nM; EC50 (HSV-1 strain F or KOS; [4]): 14000 nM |
| Nc1nc(-c2ccc(NC(=O)CN(Cc3cccs3)C(=O)C3CCCCC3)cc2)cs1 [Example 51] | 63 | 2 |  |
| CC(C)(C)OC(=O)N(CC(=O)Nc1ccc(-c2csc(N)n2)cc1)Cc1ccccc1 [Example 85] | 16 | 10 |  |
| Nc1nc(-c2ccc(NC(=O)CN(Cc3ccccc3)S(=O)(=O)c3ccccc3)cc2)cs1 [Example 97] | 310 | 130 |  |
| Nc1nc(-c2ccc(NC(=O)CN(Cc3ccccc3)C(=O)c3ccccc3)cc2)cs1 [Example 23] | 72 | 7 |  |
| C[C@@H](c1ccccc1)N(CC(=O)Nc1ccc(-c2csc(N)n2)cc1)C(=O)C1CCCCC1 [Example 53] | 38 | 3 |  |
| Nc1nc(-c2ccc(NC(=O)CN(Cc3ccccn3)C(=O)C3CCCCC3)cc2)cs1 [Example 47] | 72 | 13 |  |
| CC(C)(C)C(=O)N(CC(=O)Nc1ccc(-c2csc(N)n2)cc1)Cc1ccccc1 [Example 41] | 800 | 36 |  |
| Nc1nc(-c2ccc(NC(=O)CCN(CC3CCCCC3)C(=O)c3cccnc3)cc2)cs1 [Example 24] |  |  | IC50 (HSV-1 helicase-primase; [2]): 1200 nM; EC50 (HSV-1 strain F or KOS; [3]): 1700 nM |
| Nc1nc(-c2ccc(NC(=O)CN(Cc3ccccc3)C(=O)C3CCCC3)cc2)cs1 [Example 36] | 41 | 5 |  |
